Measurements from patent US9200269B2, “β-glucuronidase inhibitor” (priority 2007, dated 2015).
Where two headings read alike, the source gives them in different places.

How the values were obtained:
[1] = Urine catching pad urine addition test, urine odor intensity; design: species or system human; settings: six-level score 0 to 5, average of five panelists; inhibitor 1 wt. % of water-absorbent polymer; 30 g human urine, 30° C.
Procedure: Sensory evaluation of odor was performed by six panelists, the evaluation was based on a six-level odor intensity indication method in which the odor intensity was indicated with an evaluation score of 0 to 5. In the evaluation score, “0” indicates no odor, “1” indicates odor which can be slightly perceived (detection threshold), “2” indicates odor which can be perceived to be urine odor but is weak (perception threshold), “3” indicates odor which can be easily perceived to be urine odor, “4” indicates strong urine odor, and “5” indicates extreme urine odor. The odor intensity was determined at an interval of 0.5.
Specifically, the urine catching pad was prepared by replacing only a water-absorbent polymer in the commercially available urine catching pad “Relief urine catching pad safe absorption (Anshin-Kyusyu)” (manufactured by Kao Corporation) with a water-absorbent polymer wherein the β-glucuronidase inhibitor of the present invention was added. The added amount of the inhibitor to the water-absorbent polymer was 1 wt. % with respect to the water-absorbent polymer, and was equivalent to 1.5 g/m^2 with respect to the urine catching pad.
A urine addition test was performed by using test pieces having dimensions of 19 cm by 7 cm being cut out from the urine catching pad, and using a test piece containing no β-glucuronidase inhibitor as a blank. The test was performed as follows: 30 g of human urine (a mixture of urine from five humans) were added to these test pieces cut out from the urine catching pad, and the urine odor intensity after 1 hour, after 24 hours, and after 48 hours under preservation at 30° C. was evaluated by five panelists based on the six-level odor intensity indication method as described in the item (2) of Reference Example 2.

[2] = molecular target: T1, β-glucuronidase Type VII-A derived from Escherichia coli (Escherichia coli, UniProt P05804); assay: Inhibition of β-glucuronidase activity (PNPG substrate, absorbance at 400 nm); assay type: biochemical
T1 construct: purchased Sigma-Aldrich Corporation
T1 sequence (P05804 whole entry): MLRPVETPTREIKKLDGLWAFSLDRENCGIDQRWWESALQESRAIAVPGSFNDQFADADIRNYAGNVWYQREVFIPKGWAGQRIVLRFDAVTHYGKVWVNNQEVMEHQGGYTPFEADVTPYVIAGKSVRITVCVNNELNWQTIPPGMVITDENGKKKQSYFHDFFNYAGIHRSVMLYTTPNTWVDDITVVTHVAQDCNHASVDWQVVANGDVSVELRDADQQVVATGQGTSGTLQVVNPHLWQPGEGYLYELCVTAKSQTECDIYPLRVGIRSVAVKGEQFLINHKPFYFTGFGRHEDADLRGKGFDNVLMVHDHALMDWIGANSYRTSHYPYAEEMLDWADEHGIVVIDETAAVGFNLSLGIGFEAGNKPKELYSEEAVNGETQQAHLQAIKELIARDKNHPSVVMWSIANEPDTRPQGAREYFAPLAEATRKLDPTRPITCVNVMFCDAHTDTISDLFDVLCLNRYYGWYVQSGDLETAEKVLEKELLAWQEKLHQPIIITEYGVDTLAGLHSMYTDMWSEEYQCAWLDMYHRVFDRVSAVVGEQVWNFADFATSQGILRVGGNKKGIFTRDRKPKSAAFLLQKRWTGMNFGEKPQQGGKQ
Procedure: 100 μL of a 2 mM PNPG aqueous solution, 40 μL of a 0.5 M phosphate buffer (pH 6.8), 38 μL of ion exchanged water and 2 μL of a 10 or 1 wt % dipropylene glycol (DPG) solution of various compounds or plant extracts were mixed in a bottle γ-ray sterilized in advance, and subsequently 20 μL of a β-glucuronidase aqueous solution adjusted to 16 units/mL was added, in order to allow the enzyme to react in a thermostat bath at 37° C. for 2 hours. Further, in the case of some of compounds, in addition to the above steps, the same experiment was performed using a 0.1 wt % DPG solution as well. As a result, the concentrations of the test compounds and plant extracts in the reaction solution were adjusted to 0.1, 0.01 and 0.001 wt %, respectively. Further, a product prepared by adding DPG in place of the above-mentioned compounds and plant extracts was used as a control, and a product prepared by adding ion exchanged water in place of an enzyme solution was used as a blank for each sample and control, and the respective products were allowed to react for 2 hours in the same manner. It should be noted that the plant extract sample was used as a solvent extract.
The above-mentioned reaction solution was diluted with a 0.2 M glycine buffer (pH 10.4) and measured for its absorbance at a wavelength of 400 nm. The relative activity inhibition rate of a β-glucuronidase was determined by using the obtained measurement value in accordance with the following equation. Absorbance change of control=Absorbance of control−Absorbance of blank for each control Absorbance change of sample=Absorbance of sample−Absorbance of blank for each sample Activity inhibition rate (%)=[(Absorbance change of control−Absorbance change of sample)/Absorbance change of control]×100

[3] = 0.01 wt % in reaction solution, 1.6 units/mL enzyme, 37° C., 2 hours, pH 6.8, read-out: Inhibition rate (%) Concentration 0.01%
[4] = 0.1 wt % in reaction solution, 1.6 units/mL enzyme, 37° C., 2 hours, pH 6.8, read-out: Inhibition rate (%) Concentration 0.1%
[5] = 0.01 wt % in reaction solution, 1.6 units/mL enzyme, 37° C., 2 hours, pH 6.8
[6] = 0.1 wt % in reaction solution, 1.6 units/mL enzyme, 37° C., 2 hours, pH 6.8

| SMILES | inhibition at 0.01 wt % [2, 3] [%] | inhibition at 0.1 wt % [2, 4] [%] | other results |
| --- | --- | --- | --- |
| O=C(O)[C@@H](O)[C@H]1OC(=O)[C@H](O)[C@H]1O [D-Glucaro-1,4-lactone, D-glucaro-1,4-lactone, reference compound] | 80.4 | 98 | Urine odor intensity After 1 hour [1]: 1.6; Urine odor intensity After 24 hours [1]: 1.9; Urine odor intensity After 48 hours [1]: 3.3; Inhibition rate (%) Concentration 0.001% ([2]; 0.001 wt % in reaction solution, 1.6 units/mL enzyme, 37° C., 2 hours, pH 6.8): 31.1% |
| CC(C=O)Cc1ccc2c(c1)OCO2 (stereo not shown) [Helional, 2-methyl-3-(3,4-methylenedioxyphenyl)-propanal] | 32.4 | 76.4 |  |
| COc1ccc(C=O)cc1 [Anisaldehyde, anisaldehyde] |  |  | inhibition at 0.01 wt % ([2]; 2 h, pH 6.8, read-out: Inhibition rate (%) Concentration 0.01%): 15.3%; inhibition at 0.1 wt % ([2]; 2 h, pH 6.8, read-out: Inhibition rate (%) Concentration 0.1%): 85.9% |
| CC(C)=CCCC(C)CC#N (stereo not shown) [Citronellyl nitrile, citronellyl nitrile] |  |  | Inhibition rate (%) Concentration 0.01% [2, 5]: 41.8%; Inhibition rate (%) Concentration 0.1% [2, 6]: 92.4% |
| CC(C)=CCC/C(C)=C\CO [Nerol, nerol] | 44 | 85.7 |  |
| CC1=CC(C)C(C=O)CC1 (stereo not shown) [Ligustral, dimethyltetrahydrobenzaldehyde] |  |  | Inhibition rate (%) Concentration 0.01% [2, 5]: 30.1%; Inhibition rate (%) Concentration 0.1% [2, 6]: 76.2% |
| CCCCCCC#CC(=O)OC [Methyl-2-nonynoate, methyl-2-nonynoate] | 95.3 | 98.2 |  |
| CC/C=C\CCOC(=O)c1ccccc1 [cis-3-Hexenyl benzoate, cis-3-hexenyl benzoate] | 45.1 | 80.6 |  |
| COc1cc(C=O)ccc1O [Vanillin, vanillin] | 49.5 | 82.1 |  |
| CC(=O)OC(C)(C)C1CC=C(C)CC1 (stereo not shown) [Terpinyl acetate, terpinyl acetate] |  |  | Inhibition rate (%) Concentration 0.01% [2, 5]: 65.5%; Inhibition rate (%) Concentration 0.1% [2, 6]: 94.7% |
| O=C1CCCCCCCCCOCCCCCO1 [11-Oxa-16-hexadecanolide, 11-oxa-16-hexadecanolide] | 26.8 | 62.8 |  |
| CC(C)=CCCC(C)CCO (stereo not shown) [Citronellol, citronellol] | 47.4 | 76.2 |  |
| CC1CCCCCCCCCCCCC(=O)C1 (stereo not shown) [3-Methylcyclopentadecanone, 3-methylcyclopentadecanone] | 57.3 | 86.4 |  |
| O=CCCC=C1CC2CC1C1CCCC21 (stereo not shown) [Dupical, 4-(tricyclo[5.2.1.0^2,6]decylidene-8)butenal] |  |  | Inhibition rate (%) Concentration 0.01% [2, 5]: 65.5%; Inhibition rate (%) Concentration 0.1% [2, 6]: 73.5% |
| CC(C)=CCC/C(C)=C/CO [Geraniol, geraniol] | 56.8 | 79.8 |  |
